From patent US11617735B2, “Purified forms of rofecoxib, methods of manufacture and use” (Tremeau Pharmaceuticals, Inc., priority 2018, dated 2023)
Where two headings read alike, the source gives them in different places.

Legend:
bacterial mutagenicity = conditions: cited from earlier work
[1] = tested on: Chinese hamster lung cells; conditions: all concentrations tested, with and without S-9; cited from earlier work
[2] = Solubility in solvents by UHPLC assay; assay type: physicochemical
Description: The tool called “Early phase solvent selection: solubility prediction” was used. This tool allows to predict the solubility of material in a large scope of solvents, knowing the solubility in some of them. The solubility can be also predicted in function of temperature, and for solvent combinations. The solubility prediction is based on similar structures moieties between solvents. Therefore, the measurement of solubility in 16 different solvents allowed for the estimate of solubility in up to 106 solvents. […] Solubilities were obtained by UHPLC assay. Among these 106 solvents, 27 seemed interesting as solvent or antisolvent. DMF. NMP and DMSO are the solvents in which rofecoxib (RXB-201) is the most soluble (>100 g/L at 30° C.). Nevertheless, ICH Q3C, DMF and NMP were less suitable than DMSO which remains the best option. Thus, no changes were implemented regarding the solvent.
Since the main purpose of the recrystallization is to decrease the rate of one single identified impurity, 4-[4-(methylsulfinyl)phenyl]-3-phenyl-2(5H)-furanone solubilities were measured in a couple of probable antisolvents identified in Table 9. A reference of 4-[4-(methylsulfinyl)phenyl]-3-phenyl-2(5H)-furanone (CHG P059-038) was synthesized at lab on 8 g for this study, with 98% purity, as per International Patent Application No. WO/2005/120584, which is incorporated herein in its entirety. Table 10 below reports the solubility of 4-[4-(methylsulfinyl)phenyl]-3-phenyl-2(5H)-furanone in various antisolvent candidates. It is noteworthy that 4-[4-(methylsulfinyl)phenyl]-3-phenyl-2(5H)-furanone is very soluble in acetic acid. […] Alcohols can alternatively be employed as antisolvent.

[3] = Stability of isolated crude rofecoxib towards hydrogen peroxide; assay type: physicochemical; conditions: crude unwashed, stored at room temperature for 17 days (CHG P059-104)
Procedure: Several verifications were performed to confirm the feasibility of hydrogen peroxide removal: • No corrosion of Stainless steel 316L in contact with crude rofecoxib (RXB-201) mother liquors (enriched in excess hydrogen peroxide) after 10 days at 20° C. […] Crude washings seem to be efficient enough to remove peroxide traces in cake washings. • Stability of isolated crude rofecoxib (RXB-201) towards hydrogen peroxide is very satisfying. Crude unwashed rofecoxib (RXB-201) was stored at room temperature for 17 days. No evolution of UHPLC profile was observed (CHG P059-104).

CHO cells = conditions: 25 to 125 μM with S-9 or 25 to 100 μM without S-9; cited from earlier work
[4] = Stability of rofecoxib drug substance at 25° C./60% RH; assay type: physicochemical; conditions: Lot 16P3140F851
Procedure: (§1) Stability data for rofecoxib drug substance (Lot 16P3140F851) are provided in Tables 6A-B. If an individual impurity is ≥0.05% area, the result is reported to the nearest 0.01%. If an individual impurity is <0.02% (LOD), the result is reported as “not detected” (ND). If an individual impurity is <0.05% area but ≥0.02% area, the result is recorded as <0.05% area.

[5] = Stability of rofecoxib drug substance at 40° C./75% RH; assay type: physicochemical; conditions: Lot 16P3140F851
Procedure: as §1

[6] = RXB-Hydroxy formation from rofecoxib in DMSO with Na2SO3 under air (UHPLC); assay type: physicochemical; conditions: 5.5V DMSO
Procedure: Trials were performed to check the effect of both temperature and sodium sulfite on the 4-[4-(methylsulphonyl)phenyl]-3-phenyl-5-hydroxyfuran-2-one rate. Pure rofecoxib (RXB-201) (F851) was solubilized in 5.5V DMSO. on which Na2SO3 was added. Three amounts of Na2SO3 were tested: • 0%: rofecoxib (RXB-201) post filtration • 0.5%: ashes result obtained on pilot batch (crude rofecoxib (RXB-201) F801) • 1.5%: ashes result obtained on APG P052-110 batch
Samples were subjected to 2 different temperatures under air atmosphere: • 40° C.: current heating temperature for polishing filtration • 60° C.: possible future temperature for polishing filtration if DMSO volumes are reduced for better productivity.

mice = conditions: dose levels up to 60 mg/kg; cited from earlier work
[7] = tested on: Salmonella typhimurium (TA98, TA100, TA1535, TA97a) and E. coli (WP2, WP2uvrA, WP2 uvrA pKM101); conditions: with and without S9, up to 6000 μg/plate; cited from earlier work
rats = conditions: dose levels up to 8 mg/kg; cited from earlier work
[8] = in vivo; cited from earlier work
arthritis model = conditions: in vivo; cited from earlier work
[9] = analog data from software training sets / literature

Structure (SMILES): CS(=O)(=O)c1ccc(C(=O)CBr)cc1 [LS-394467, 2-Bromo-1-[4-(methylsulfonyl)phenyl]-1-ethanone]
- Experimental mutagenicity (bacterial mutagenicity; [9]): positive

Structure (SMILES): CS(=O)(=O)c1ccc(C2=C(c3ccccc3)C(=O)OC2)cc1 [Rofecoxib, 4-[4-(methylsulfonyl)phenyl]-3-phenyl-2(5H)-furanone]
- Mutations in Chinese hamster lung cells [1]: negative
- solubility ([2]; DMF, 30 °C): 133 mg/mL
- solubility ([2]; DMF, 30 °C, organic solvent or mixture, DMF, 30 °C, read-out: Solubility): > 100 mg/mL
- solubility ([2]; DMSO, 20 °C, organic solvent or mixture, DMSO, 20 °C, read-out: Solubility): 93 mg/mL
- solubility ([2]; DMSO, 30 °C): 107 mg/mL
- solubility ([2]; DMSO, 30 °C, organic solvent or mixture, DMSO, 30 °C, read-out: Solubility): > 100 mg/mL
- solubility ([2]; DMSO, 40 °C, organic solvent or mixture, DMSO, 40 °C, read-out: Solubility): 133 mg/mL
- solubility ([2]; DMSO, 50 °C, organic solvent or mixture, DMSO, 50 °C, read-out: Solubility): 181 mg/mL
- solubility ([2]; DMSO, 60 °C, organic solvent or mixture, DMSO, 60 °C, read-out: Solubility): 181 mg/mL
- solubility ([2]; NMP, 30 °C, organic solvent or mixture, NMP, 30 °C, read-out: Solubility): > 100 mg/mL
- solubility ([2]; acetic acid, 30 °C, organic solvent or mixture, Acetic acid, 30 °C, read-out: Solubility): 5 mg/mL
- solubility ([2]; acetone, 30 °C, organic solvent or mixture, Acetone, 30 °C, read-out: Solubility): 28 mg/mL
- solubility ([2]; acetonitrile, 30 °C, organic solvent or mixture, Acetonitrile, 30 °C, read-out: Solubility): 41 mg/mL
- solubility ([2]; anisole, 30 °C, organic solvent or mixture, Anisole, 30 °C, read-out: Solubility): 22 mg/mL
- solubility ([2]; chlorobenzene, 30 °C, organic solvent or mixture, Chlorobenzene, 30 °C, read-out: Solubility): 2.3 mg/mL
- solubility ([2]; dichloromethane, 30 °C, organic solvent or mixture, Dichloromethane, 30 °C, read-out: Solubility): 45 mg/mL
- solubility ([2]; ethyl acetate, 30 °C, organic solvent or mixture, Ethyl acetate, 30 °C, read-out: Solubility): 4.7 mg/mL
- solubility ([2]; methanol, 30 °C, organic solvent or mixture, Methanol, 30 °C, read-out: Solubility): 1.8 mg/mL
- solubility ([2]; n-butanol, 30 °C, organic solvent or mixture, n-butanol, 30 °C, read-out: Solubility): 0.2 mg/mL
- solubility ([2]; n-heptane, 30 °C, organic solvent or mixture, n-heptane, 30 °C, read-out: Solubility): < 0.1 mg/mL
- solubility ([2]; toluene, 30 °C, organic solvent or mixture, Toluene, 30 °C, read-out: Solubility): 1.2 mg/mL
- solubility ([2]; water, 30 °C, water, 30 °C, read-out: Solubility): < 0.1 mg/mL
- Solubility in water (descriptive) ([2]; water, insoluble regarding US pharmacopeia): very poorly soluble
- Evolution of UHPLC profile [3]: No evolution
- Percent of aberrant cells (CHO cells): no significant increases
- Appearance ([4]; 3 Month): White
- Assay by HPLC ([4]; 3 Month): 100.4 % w/w
- Impurities by HPLC: RRT ~ 0.5 ([4]; 3 Month): <0.05 % area
- Impurities by HPLC: RXB-furanone ([4]; 3 Month): 0.08 % area
- Impurities by HPLC: Total Impurities ([4]; 3 Month): 0.11 % area
- Water Content by Karl Fischer ([4]; 3 Month): 0.08%
- Appearance ([4]; Initial): Off-white
- Assay by HPLC ([4]; Initial): 99.8 % w/w
- Impurities by HPLC: RRT ~ 0.5 ([4]; Initial): <0.05 % area
- Impurities by HPLC: RXB-furanone ([4]; Initial): 0.08 % area
- Impurities by HPLC: Total Impurities ([4]; Initial): 0.11 % area
- Polymorphic form by XRPD ([4]; Initial): Form A
- Water Content by Karl Fischer ([4]; Initial): 0.12%
- Appearance ([5]; 1 Month): Off-white
- Assay by HPLC ([5]; 1 Month): 99.6 w/w
- Impurities by HPLC: RRT ~ 0.5 ([5]; 1 Month): <0.05 % area
- Impurities by HPLC: RXB-furanone ([5]; 1 Month): 0.08 % area
- Impurities by HPLC: Total Impurities ([5]; 1 Month): 0.11 % area
- Water Content by Karl Fischer ([5]; 1 Month): 0.07%
- Appearance ([5]; 3 Month): White
- Assay by HPLC ([5]; 3 Month): 100.5 w/w
- Impurities by HPLC: RRT ~ 0.5 ([5]; 3 Month): <0.05 % area
- Impurities by HPLC: RXB-furanone ([5]; 3 Month): 0.08 % area
- Impurities by HPLC: Total Impurities ([5]; 3 Month): 0.12 % area
- Water Content by Karl Fischer ([5]; 3 Month): 0.09%
- Appearance ([5]; Initial): Off-white
- Assay by HPLC ([5]; Initial): 99.8 w/w
- Impurities by HPLC: RRT ~ 0.5 ([5]; Initial): <0.05 % area
- Impurities by HPLC: RXB-furanone ([5]; Initial): 0.08 % area
- Impurities by HPLC: Total Impurities ([5]; Initial): 0.11 % area
- Polymorphic form by XRPD ([5]; Initial): Form A
- Water Content by Karl Fischer ([5]; Initial): 0.12%
- RXB-Hydroxy (UPLC) ([6]; 0% Na2SO3 (residue on ignition), IPC1 (3 h), 40° C.): 0.08 % a/a
- RXB-Hydroxy (UPLC) ([6]; 0% Na2SO3 (residue on ignition), IPC1 (3 h), 60° C.): 0.16 % a/a
- RXB-Hydroxy (UPLC) ([6]; 0% Na2SO3 (residue on ignition), IPC2 (6 h), 40° C.): 0.14 % a/a
- RXB-Hydroxy (UPLC) ([6]; 0% Na2SO3 (residue on ignition), IPC2 (6 h), 60° C.): 0.17 % a/a
- RXB-Hydroxy (UPLC) ([6]; 0.5% Na2SO3 (residue on ignition), IPC1 (3 h), 40° C.): 0.30 % a/a
- RXB-Hydroxy (UPLC) ([6]; 0.5% Na2SO3 (residue on ignition), IPC1 (3 h), 60° C.): 0.35 % a/a
- RXB-Hydroxy (UPLC) ([6]; 0.5% Na2SO3 (residue on ignition), IPC2 (6 h), 40° C.): 0.45 % a/a
- RXB-Hydroxy (UPLC) ([6]; 0.5% Na2SO3 (residue on ignition), IPC2 (6 h), 60° C.): 0.52 % a/a
- RXB-Hydroxy (UPLC) ([6]; 1.5% Na2SO3 (residue on ignition), IPC1 (3 h), 40° C.): 0.38 % a/a
- RXB-Hydroxy (UPLC) ([6]; 1.5% Na2SO3 (residue on ignition), IPC1 (3 h), 60° C.): 0.67 % a/a
- RXB-Hydroxy (UPLC) ([6]; 1.5% Na2SO3 (residue on ignition), IPC2 (6 h), 40° C.): 0.60 % a/a
- RXB-Hydroxy (UPLC) ([6]; 1.5% Na2SO3 (residue on ignition), IPC2 (6 h), 60° C.): 0.73 % a/a
- Carcinogenicity (mice): not carcinogenic
- Mutagenicity [7]: negative
- Carcinogenicity (rats): not carcinogenic

Structure (SMILES): c1ccc(SCCSc2ccccc2)cc1 [1,2-bis(phenylthio)ethane]
- Experimental mutagenicity (bacterial mutagenicity; [9]): non-mutagenic

Structure (SMILES): O=C(CBr)c1ccccc1 [LS-188087, 2-bromoacetophenone]
- Experimental mutagenicity (bacterial mutagenicity): negative

Structure (SMILES): N#CCc1ccccc1 [A-RSM2-01, 2-phenylacetonitrile]
- Experimental mutagenicity (bacterial mutagenicity; [9]): negative

Structure (SMILES): C[S+]([O-])c1ccc(C2=C(c3ccccc3)C(=O)OC2)cc1 (stereo not drawn) [A-STG4-01, 4-(4-(methylsulfinyl)phenyl)-3-phenylfuran-2(5H)-one]
- solubility ([2]; acetic acid, 30 °C, organic solvent or mixture, Table 10: Acetic acid, 30 °C, read-out: Solubility): 1540 mg/mL
- solubility ([2]; acetic acid, organic solvent or mixture, acetic acid, temperature not stated, read-out: Solubility in acetic acid): > 1000 mg/mL
- solubility ([2]; ethanol, 30 °C, organic solvent or mixture, Table 10: Ethanol, 30 °C, read-out: Solubility): 28 mg/mL
- solubility ([2]; isopropanol (IPA), 30 °C, organic solvent or mixture, Table 10: IPA, 30 °C, read-out: Solubility): 0.2 mg/mL
- solubility ([2]; n-butanol, 30 °C, organic solvent or mixture, Table 10: n-Butanol, 30 °C, read-out: Solubility): 14 mg/mL
- solubility ([2]; water, 30 °C, water, Table 10: Water, 30 °C, read-out: Solubility): 0.7 mg/mL
- Pharmacokinetic profile compared with rofecoxib [8]: slightly improved
- Pharmacological activity in an arthritis model compared with rofecoxib (arthritis model): better
